# Assay results reported in patent publication US8738114B2, “Systems and methods for measuring and modeling in vivo manganese ion transport in a subject” (Celtrast LLC, priority 2009, dated 2014).
# Molecular target: NCX (Mus musculus, UniProt P70414)
# Assay: In vivo MEMRI Mn^2+ efflux study with NCX inhibition by SEA0400 (dose dependent groups), pharmacokinetic Models 1-3
# Details: for Mn^2+ efflux rate following inhibition of the NCX, % of the initial, pre-SEA0400 administration, rate: Model 2 prediction, maximum inhibition
# [1] = Model 1, 10 mg/kg SEA0400 i.p. 1 h post-190 nmoles/g BW MnCl2
# [2] = Model 1, 20 mg/kg SEA0400 i.p. 1 h post-190 nmoles/g BW MnCl2
# [3] = Model 1, 34 mg/kg SEA0400 i.p. 1 h post-190 nmoles/g BW MnCl2
# [4] = Model 1, 50 mg/kg SEA0400 i.p. 1 h post-190 nmoles/g BW MnCl2
# [5] = Model 2, 10 mg/kg SEA0400 i.p. 1 h post-190 nmoles/g BW MnCl2
# [6] = Model 2, 20 mg/kg SEA0400 i.p. 1 h post-190 nmoles/g BW MnCl2
# [7] = Model 2, 34 mg/kg SEA0400 i.p. 1 h post-190 nmoles/g BW MnCl2
# [8] = Model 2, 50 mg/kg SEA0400 i.p. 1 h post-190 nmoles/g BW MnCl2
# [9] = Model 3, 10 mg/kg SEA0400 i.p. 1 h post-190 nmoles/g BW MnCl2
# [10] = Model 3, 20 mg/kg SEA0400 i.p. 1 h post-190 nmoles/g BW MnCl2
# [11] = Model 3, 34 mg/kg SEA0400 i.p. 1 h post-190 nmoles/g BW MnCl2
# [12] = Model 3, 50 mg/kg SEA0400 i.p. 1 h post-190 nmoles/g BW MnCl2
# Method: The mice were randomized into three groups for efflux studies: 1) MnCl2 dose dependent (65±0.2, 119±2, 190±3 (Control) and 283±6 nmoles/g body weight MnCl2, n=40 mice) 2) SEA0400 dose dependent (190±1 nmoles/g BW MnCl2 infusion, followed 1 hour later with an i.p. injection of 10±0.2, 20±0.2, 34±0.8 and 50±0.2 mg/kg SEA0400, n=30) 3) Myocardial infarction (MI, 190±0.1 nmoles/g BW MnCl2, n=9)
# In order to model the drug pharmacokinetics of SEA0400, and therefore the Mn^2+ transport mechanisms, an equation for the drug plasma concentration (Cp) was used (Eq. [2]), commonly applied to pharmaceutical modeling:
# In Eq. [2] F is the fraction of drug absorbed, Vp is the apparent volume of distribution of the drug and D is the drug dose administered. The rate parameters, kel and kabs represent the drug elimination and absorption rates respectively.
# The form for the Mn^2+ transfer rate parameter k21 was given by Eq. [3], under the assumption that k21 decreases linearly with increasing SEA0400 plasma concentration, Cp, as in Eq. [2]:
# Parameter k21,initial is defined as the pre-pharmaceutical administration transfer parameter, k21(t<1 h). […] All the transfer rate and pharmaceutical parameters were therefore time-independent with the exception of k0 and k21 following SEA0400 administration.
# The pharmaceutical absorption and elimination half-live (t1/2abs and t1/2el respectively) are given in Eq. [4] and Eq. [5].
# Solutions to the ODEs were acquired using simultaneous 4th Order Runge-Kutta numerical methods in Matlab (Nantick, Mass.). Temporal in vivo cardiac Mn^2+ content data and ex vivo blood Mn^2+ content data were fit simultaneously to acquire least square fits for the first order rate parameters, kab. Least square fits of the pharmaceutical parameters, kabs and kel were also obtained using the SEA0400 groups, assuming that kab was unchanged from the control 190 nmoles/g group. […] The only constraint made by the least square fitting technique was that the transfer rate parameters and pharmaceutical parameters were ≧0.
# Least square curve fitting techniques are inherently sensitive to the initial estimates of kab. For a given initial estimate of kab the fit may converge on solutions at local minima, which may not be the global minimum. In order to minimize potential errors caused by this effect, all the models employed a global search over a wide range in parameter space to find the initial estimates of kab corresponding to lowest fit residuals. To use the most realistic initial estimates for the fitting function, simultaneous solutions were obtained for the control 190 nmoles/g heart and 50 mg/kg SEA0400 heart efflux data, as well as the corresponding blood efflux data.
# For the SEA0400 groups, a similar set of simultaneous ODEs was used, with k21 modeled as a function of time (Eq. [3]).
# k21total and k2comp are the total transfer rates from compartment 2 to the blood, and from compartment 2 to compartments 3 and 4, respectively. These two parameters were estimated via the modeling technique.
smiles,measurement,setting,value
CCOc1ccc(Oc2ccc(OCc3cc(F)ccc3F)cc2)c(N)c1 [SEA0400],kabs drug absorption rate,[1],671 h⁻¹
same,kel drug elimination rate,[1],1.7 h⁻¹
same,kabs drug absorption rate,[2],672 h⁻¹
same,kel drug elimination rate,[2],0.51 h⁻¹
same,kabs drug absorption rate,[3],680 h⁻¹
same,kel drug elimination rate,[3],0.49 h⁻¹
same,kabs drug absorption rate,[4],66 h⁻¹
same,kel drug elimination rate,[4],0.14 h⁻¹
same,kabs drug absorption rate,[5],68 h⁻¹
same,kel drug elimination rate,[5],1.6 h⁻¹
same,kabs drug absorption rate,[6],149 h⁻¹
same,kel drug elimination rate,[6],0.47 h⁻¹
same,kabs drug absorption rate,[7],115 h⁻¹
same,kel drug elimination rate,[7],0.41 h⁻¹
same,kabs drug absorption rate,[8],118 h⁻¹
same,kel drug elimination rate,[8],0.17 h⁻¹
same,"Mn^2+ efflux rate following inhibition of the NCX, % of the initial, pre-SEA0400 administration, rate",10 mg/kg SEA0400,8.2%
same,"Mn^2+ efflux rate following inhibition of the NCX, % of the initial, pre-SEA0400 administration, rate",20 mg/kg SEA0400,1.8%
same,"Mn^2+ efflux rate following inhibition of the NCX, % of the initial, pre-SEA0400 administration, rate",35 mg/kg SEA0400,1.6%
same,"Mn^2+ efflux rate following inhibition of the NCX, % of the initial, pre-SEA0400 administration, rate",50 mg/kg SEA0400,1.0%
same,kabs drug absorption rate,[9],85 h⁻¹
same,kel drug elimination rate,[9],1.1 h⁻¹
same,kabs drug absorption rate,[10],118 h⁻¹
same,kel drug elimination rate,[10],0.44 h⁻¹
same,kabs drug absorption rate,[11],9.4 h⁻¹
same,kel drug elimination rate,[11],0.33 h⁻¹
same,kabs drug absorption rate,[12],149 h⁻¹
same,kel drug elimination rate,[12],0.06 h⁻¹
same,share of Mn^2+ efflux that occurs via the NCX,"model prediction, highest dose of SEA0400",approximately 99%
